Data from patent publication US20090203145A1, “METHODS FOR ANALYSIS OF VITAMINS” (priority 2008, published 2009).

system: specific bacteria; assay: Microbiological method for B6 (Official Method 961.15, Modified): signal response of similar molecules; assay type: cell-based; conditions: microbiological B6 assay; B6 (pyridoxine) given as 100
Excerpt: The often low concentrations of vitamins in foods can make measuring the level of vitamins in various foods difficult. For example, the low concentration of B vitamins in infant formula makes it difficult to be measured by traditional measurement techniques such as HPLC. Currently, microbiological methods for measuring B vitamins are widely used at laboratories. This method is based on the growth of specific bacteria in the presence of a specific B vitamin and can only be measured one analyte per assay. The analysis process may take more than 30 hours. Poor reproducibility is another disadvantage. It is not unusual for a bacterial response to vary with different compounds and show low specificity. Monitoring different chemical forms. Current microbiological method have less specificity, such as those described in Official Method 961.15 (Modified), Official Methods of Analysis of AOAC International, 17th ed., AOAC International, Gaithersburg Md. (2000). In the case of B6, for example, other similar molecules may have a similar response. […] However, these compounds can be distinguished by LC/MS/MS without any problem in real samples such as milk.

| Compound | Signal Response in Microbiological Method: Response, % [%] |
| --- | --- |
| Cc1ncc(CO)c(C=O)c1O [Pyridoxal, pyridoxal] | 112 |
| Cc1ncc(CO)c(CO)c1O [B6, pyridoxine, pyridoxine] | 100 |
| Cc1ncc(CO)c(CN)c1O [Pyridoxamine, pyridoxamine] | 84 |
| Cc1ncc(CO)c(C(=O)O)c1O [Pyridoxic acid, 4-pyridoxic acid] | 0 |

same assay, conditions: microbiological B6 assay; statement in words

| Compound | response in microbiological method compared with B6 |
| --- | --- |
| Cc1ncc(CO)c(C=O)c1O [Pyridoxal, pyridoxal] | response as strong as B6 |
| Cc1ncc(CO)c(CN)c1O [Pyridoxamine, pyridoxamine] | response as strong as B6 |
